Data from patent US7163952B2, “Azole compound and medicinal use thereof” (Japan Tobacco Inc., priority 2001, dated 2007).

Compound | melting point
CC(C)N(c1ccc(C(=O)O)cc1)c1nc(-c2cccc(OCc3ccc(C4CCCCC4)cc3)c2)cs1 [Example 141, 4-(N-(4-(3-(4-cyclohexylbenzyloxy)phenyl)-2-thiazolyl)-N-isopropylamino)benzoic acid] | 189 to 190 °C
O=C(O)c1ccc(N(CC2CCCCC2)c2nc(-c3cccc(OCc4ccc(C5CCCCC5)cc4)c3)cs2)cc1 [Example 142, 4-(N-(4-(3-(4-cyclohexylbenzyloxy)phenyl)-2-thiazolyl)-N-cyclohexylmethylamino)benzoic acid] | 195 to 197 °C
CC(C)N(Cc1ccc(C(=O)O)cc1)c1nc(-c2cccc(NC(=O)c3ccc(C4CCCCC4)cc3)c2)cs1 [Example 146, 4-((N-(4-(3-(4-cyclohexylbenzoylamino)phenyl)-2-thiazolyl)-N-isopropylamino)methyl)benzoic acid] | 228 to 230 °C
O=C(O)c1ccc(Nc2nc(-c3cc(Cl)ccc3OCc3ccccc3)cs2)cc1 [Example 148, 4-(4-(2-benzyloxy-5-chlorophenyl)-2-thiazolylamino)benzoic acid] | 208 to 211 °C
CC(C)(c1ccc(C(=O)O)cc1)c1nc(-c2cc(Cl)ccc2OCc2ccccc2)cs1 [Example 149, 4-(1-(4-(2-benzyloxy-5-chlorophenyl)-2-thiazolyl)-1-methylethyl)benzoic acid] | 152 to 154 °C
O=C(O)c1ccc(Nc2nc(-c3cc(Cl)ccc3OCc3ccccc3)cs2)c(OCCC2CCCCC2)c1 [Example 150, 4-(4-(2-benzyloxy-5-chlorophenyl)-2-thiazolylamino)-3-(2-cyclohexylethoxy)benzoic acid] | 230 °C (dec.)
CN(c1ccc(C(=O)O)cc1)c1nc(-c2cc(Cl)ccc2OCc2ccccc2)cs1 [Example 151, 4-(N-(4-(2-benzyloxy-5-chlorophenyl)-2-thiazolyl)-N-methylamino)benzoic acid] | 211 to 212 °C
O=C(O)c1ccc(N(CCC2CCCCC2)c2nc(-c3cc(Cl)ccc3OCc3ccccc3)cs2)cc1 [Example 152, 4-(N-(4-(2-benzyloxy-5-chlorophenyl)-2-thiazolyl)-N-(2-cyclohexylethyl)amino)benzoic acid] | 160 to 163 °C
O=C(O)c1ccc(N(CCOc2ccccc2)c2nc(-c3cc(Cl)ccc3OCc3ccccc3)cs2)cc1 [Example 153, 4-(N-(4-(2-benzyloxy-5-chlorophenyl)-2-thiazolyl)-N-(2-phenoxyethyl)amino)benzoic acid] | 152 to 155 °C
COc1ccc(OCc2ccccc2)c(-c2csc(Nc3ccc(C(=O)O)cc3)n2)c1 [Example 154, 4-(4-(2-benzyloxy-5-methoxyphenyl)-2-thiazolylamino)benzoic acid] | 184 to 185 °C
COc1ccc(OCc2ccc(C(F)(F)F)cc2)c(-c2csc(Nc3ccc(C(=O)O)cc3)n2)c1 [Example 155, 4-(4-(5-methoxy-2-(4-trifluoromethylbenzyloxy)phenyl)-2-thiazolylamino)benzoic acid] | 218 to 219 °C
COc1ccc(OCc2ccccc2)c(-c2csc(Nc3ccc(C(=O)O)cc3OCc3ccccc3)n2)c1 [Example 156, 3-benzyloxy-4-(4-(2-benzyloxy-5-methoxyphenyl)-2-thiazolylamino)benzoic acid] | 218 to 221 °C
COc1ccc(OCc2ccc(C3CCCCC3)cc2)c(-c2csc(Nc3ccc(C(=O)O)cc3)n2)c1 [Example 157, 4-(4-(2-(4-cyclohexylbenzyloxy)-5-methoxyphenyl)-2-thiazolylamino)benzoic acid] | 230 to 234 °C
O=C(O)c1cc(Cc2nc(-c3cc(Cl)ccc3OCc3ccccc3)cs2)ccc1O [Example 158, 5-(4-(2-benzyloxy-5-chlorophenyl)-2-thiazolylmethyl)-2-hydroxybenzoic acid] | 212 to 213 °C
O=C(O)c1ccc(N(Cc2ccc(C(F)(F)F)cc2)c2nc(-c3cc(Cl)ccc3OCc3ccccc3)cs2)cc1 [Example 159, 4-(N-(4-(2-benzyloxy-5-chlorophenyl)-2-thiazolyl)-N-(4-trifluoromethylbenzyl)amino)benzoic acid] | 194 to 196 °C
O=C(O)c1ccc(N(CC2CCCCC2)c2nc(-c3cc(Cl)ccc3OCc3ccccc3)cs2)cc1 [Example 160, 4-(N-(4-(2-benzyloxy-5-chlorophenyl)-2-thiazolyl)-N-cyclohexylmethylamino)benzoic acid] | 184 to 185 °C
O=C(O)c1ccc(CNc2nc(-c3cc(Cl)ccc3OCc3ccccc3)cs2)cc1 [Example 162, 4-((4-(2-benzyloxy-5-chlorophenyl)-2-thiazolylamino)methyl)benzoic acid] | 210 to 211 °C
CN(Cc1ccc(C(=O)O)cc1)c1nc(-c2cc(Cl)ccc2OCc2ccccc2)cs1 [Example 163, 4-((N-(4-(2-benzyloxy-5-chlorophenyl)-2-thiazolyl)-N-methylamino)methyl)benzoic acid] | 169 to 171 °C

Compound | melting point
O=C(O)c1ccc(CN(CCC2CCCCC2)c2nc(-c3cc(Cl)ccc3OCc3ccccc3)cs2)cc1 [Example 164, 4-((N-(4-(2-benzyloxy-5-chlorophenyl)-2-thiazolyl)-N-(2-cyclohexylethyl)amino)methyl)benzoic acid] | 158 to 160 °C
O=C(O)c1ccc(CN(CCC2CCCCC2)c2nc(-c3cc(Cl)ccc3OCc3ccc(C(F)(F)F)cc3)cs2)cc1 [Example 165, 4-((N-(4-(5-chloro-2-(4-trifluoromethylbenzyloxy)phenyl)-2-thiazolyl)-N-(2-cyclohexylethyl)amino)methyl)benzoic acid] | 171 to 172 °C
COc1ccc(OCc2ccc(C(F)(F)F)cc2)c(-c2csc(N(CCC3CCCCC3)Cc3ccc(C(=O)O)cc3)n2)c1 [Example 166, 4-((N-(2-cyclohexylethyl)-N-(4-(5-methoxy-2-(4-trifluoromethylbenzyloxy)phenyl)-2-thiazolyl)amino)methyl)benzoic acid] | 183 to 184 °C
O=C(O)c1ccc(N(Cc2ccc(Cl)c(Cl)c2)c2nc(-c3cc(Cl)ccc3OCc3ccccc3)cs2)cc1 [Example 167, 4-(N-(4-(2-benzyloxy-5-chlorophenyl)-2-thiazolyl)-N-(3,4-dichlorobenzyl)amino)benzoic acid] | 196 to 198 °C
CC(C)CCN(c1ccc(C(=O)O)cc1)c1nc(-c2cc(Cl)ccc2OCc2ccccc2)cs1 [Example 168, 4-(N-(4-(2-benzyloxy-5-chlorophenyl)-2-thiazolyl)-N-(3-methylbutyl)amino)benzoic acid] | 143 to 149 °C
COc1ccc(OCc2ccccc2)c(-c2csc(N(CCC3CCCCC3)c3ccc(C(=O)O)cc3)n2)c1 [Example 169, 4-(N-(4-(2-benzyloxy-5-methoxyphenyl)-2-thiazolyl)-N-(2-cyclohexylethyl)amino)benzoic acid] | 132 to 137 °C
COc1ccc(OCc2ccc(C(F)(F)F)cc2)c(-c2csc(N(CCC3CCCCC3)c3ccc(C(=O)O)cc3)n2)c1 [Example 170, 4-(N-(2-cyclohexylethyl)-N-(4-(5-methoxy-2-(4-trifluoromethylbenzyloxy)phenyl)-2-thiazolyl)amino)benzoic acid] | 104 to 107 °C
COc1ccc(OCc2ccc(C(F)(F)F)cc2)c(-c2csc(Nc3ccc(C(=O)O)cc3OCCC3CCCCC3)n2)c1 [Example 171, 3-(2-cyclohexylethoxy)-4-(4-(5-methoxy-2-(4-trifluoromethylbenzyloxy)phenyl)-2-thiazolylamino)benzoic acid] | 111 to 114 °C
O=C(O)c1cccc(N(CCC2CCCCC2)c2nc(-c3cc(Cl)ccc3OCc3ccccc3)cs2)c1 [Example 172, 3-(N-(4-(2-benzyloxy-5-chlorophenyl)-2-thiazolyl)-N-(2-cyclohexylethyl)amino)benzoic acid] | 170 to 171 °C
CC(C)c1ccc(COc2ccc(Cl)cc2-c2csc(Nc3ccc(C(=O)O)cc3)n2)cc1 [Example 173, 4-(4-(5-chloro-2-(4-isopropylbenzyloxy)phenyl)-2-thiazolylamino)benzoic acid] | 215 to 218 °C
O=C(O)c1ccc(N(CCC2CCCCC2)c2nc(-c3cc(F)ccc3OCc3ccccc3)cs2)cc1 [Example 174, 4-(N-(4-(2-benzyloxy-5-fluorophenyl)-2-thiazolyl)-N-(2-cyclohexylethyl)amino)benzoic acid] | 125 to 130 °C
Cc1ccc(OCc2ccccc2)c(-c2csc(N(CCC3CCCCC3)c3ccc(C(=O)O)cc3)n2)c1 [Example 175, 4-(N-(4-(2-benzyloxy-5-methylphenyl)-2-thiazolyl)-N-(2-cyclohexylethyl)amino)benzoic acid] | 148 to 150 °C
CC(C)c1ccc(COc2ccc(Cl)cc2-c2csc(N(CCC3CCCCC3)c3ccc(C(=O)O)cc3)n2)cc1 [Example 176, 4-(N-(4-(5-chloro-2-(4-isopropylbenzyloxy)phenyl)-2-thiazolyl)-N-(2-cyclohexylethyl)amino)benzoic acid] | 190 to 192 °C
O=C(O)c1ccc(N(CCC2CCCCC2)c2nc(-c3cc(Cl)ccc3OCc3ccc(C(F)(F)F)cc3)cs2)cc1 [Example 177, 4-(N-(4-(5-chloro-2-(4-trifluoromethylbenzyloxy)phenyl)-2-thiazolyl)-N-(2-cyclohexylethyl)amino)benzoic acid] | 170 to 175 °C
O=C(O)c1ccc(N(CCC2CCCCC2)c2nc(-c3cc(Cl)ccc3OCc3ccc(Cl)c(Cl)c3)cs2)cc1 [Example 178, 4-(N-(4-(5-chloro-2-(3,4-dichlorobenzyloxy)phenyl)-2-thiazolyl)-N-(2-cyclohexylethyl)amino)benzoic acid] | 195 to 198 °C
O=C(O)c1ccc(Nc2nc(-c3cc(Cl)ccc3OCc3ccc(C(F)(F)F)cc3)cs2)c(OCCC2CCCCC2)c1 [Example 179, 4-(4-(5-chloro-2-(4-trifluoromethylbenzyloxy)phenyl)-2-thiazolylamino)-3-(2-cyclohexylethoxy)benzoic acid] | 134 to 140 °C
COc1ccc(OCc2ccc(C(F)(F)F)cc2)c(-c2csc(Nc3ccc(C(=O)O)cc3OCc3ccccc3)n2)c1 [Example 180, 3-benzyloxy-4-(4-(5-methoxy-2-(4-trifluoromethylbenzyloxy)phenyl)-2-thiazolylamino)benzoic acid] | 227 to 230 °C
